Assays:
CYP7A gene = assay: Northern blot of CYP7A gene expression in hamster liver; format: in vivo; conditions: 14 days
Description: (§1) Male Syrian Golden Hamsters (7 weeks old) were purchased from Japan SLC and preliminarily reared for 2 weeks under a high fat diet load (10% coconut oil, 0.12% cholesterol). After the preliminary rearing, the high fat diet was fed to the hamsters while administering compound A. The drug was prepared into a 0.5% methylcellulose suspension, and forcibly administered orally at 30 or 100 mg/kg/day for 14 consecutive days. At 4, 7, 11 and 14 days from the drug administration, blood was drawn from the orbital vein of the animal and total serum cholesterol value was measured. As a control, a drug non-administration group was prepared and treated similarly, which was followed by measurement of the serum total cholesterol value. At the final day of the test, the liver and the ileum were removed from the animals, from which the total RNA was prepared.
(§2) The total RNA was prepared from animal tissues by AGPC method. The prepared total RNA was electrophoresed on an agarose gel containing 6% formaldehyde and transferred onto a nylon membrane by a capillary blotting method. This membrane was hybridized with ^32P-labeled hamster CYP7A or I-BABP probe in 50% formamide at 42° C. for 16 h and the amounts of CYP7A and I-BABP gene expressions were measured. The CYP7A and I-BABP probes were prepared by RT-PCR method from RNA derived from the liver and the ileum, respectively, of the hamsters.

[1] = biological target: T1, FXR ligand binding domain (FXR-LBD) (Homo sapiens, UniProt Q96RI1); assay: FRET assay of CDCA-induced binding of FXR-LBD to coactivator SRC-1; format: biochemical; conditions: in the presence of CDCA; compound A 1-50 μM; 4° C., 12 h
T1 construct: GST
T1 sequence (Q96RI1 262-486 limits assumed): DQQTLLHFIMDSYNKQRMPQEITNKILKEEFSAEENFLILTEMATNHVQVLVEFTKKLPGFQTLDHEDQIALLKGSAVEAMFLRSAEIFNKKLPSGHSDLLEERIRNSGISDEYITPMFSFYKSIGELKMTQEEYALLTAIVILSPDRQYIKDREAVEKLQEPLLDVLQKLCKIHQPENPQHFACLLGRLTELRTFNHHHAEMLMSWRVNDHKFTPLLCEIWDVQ
Description: (§3) An Eu-labeled FXR ligand binding domain (FXR-LBD) and an APC-labeled coactivator SRC-1 were mixed to the final concentration of 10 nM and 100 nM, respectively, in a buffer [100 mM Hepes (pH 7.6), 0.125% CHAPS, 125 mM NaF] in the presence of ligand CDCA. Thereto were added various concentrations of compound A (1-50 μM), and the mixture was allowed to react at 4° C. for 12 h. After the reaction, it was exposed to an excitation light at 337 nm and the fluorescence at 665 nm and 620 nm was measured, based on which the fluorescence ratio of 665 nm/620 nm was taken as an FRET fluorescence intensity.

[2] = test system: CYP7A gene expression in HepG2 cells; assay: CYP7A mRNA in HepG2 cells by quantitative RT-PCR; format: cell-based, human; conditions: CDCA 20 μM + compound A 10 μM, 37° C., 16 h
Description: (§4) The cultured HepG2 cells were treated under the following three conditions at 37° C. for 16 h.
(§5) 1) no treatment with CDCA, no treatment with compound A
(§6) 2) treatment with CDCA (20 μM), no treatment with compound A
3) treatment with CDCA (20 μM), treatment with compound A (10 μM)
RNA was prepared from the cells after the treatment and the amount of CYP7A mRNA contained in the RNA was measured by quantitative RT-PCR. For the quantitative RT-PCR, TaqMan One Step Gold reverse transcriptase PCR kit of Applied Biosystems/PerkinElmer was used. For quantification, the following primers (i)-(iii) derived from human CYP7A gene sequence were used.

[3] = test system: LXR (liver X receptor) ligand binding domain (LXR-LBD); assay: FRET assay with LXR-LBD instead of FXR-LBD (test for comparison); format: biochemical; conditions: up to 50 μM
Description: as §3
At a concentration of not less than 1 μM, compound A inhibited the binding between FXR-LBD and SRC-1 induced in the presence of CDCA (attenuation of FRET fluorescent intensity). For a test for comparison, a similar experiment was conducted using LXR (liver X receptor) ligand binding domain (LXR-LBD) instead of FXR-LBD.

[4] = Serum total cholesterol in hamsters on high fat diet; format: in vivo, hamster; conditions: 14 days, last day of the test
Description: as §1
The blood was drawn from the orbital vein of the animals and centrifuged (3000 rpm, 15 min) to prepare the serum. The total cholesterol concentration of the serum was determined by the enzyme method.

HepG2 cells = assay: Excretion of bile acid from HepG2 cells; format: cell-based, human; conditions: compound A 1, 10 μM, 24 h
Description: The cultured HepG2 cells were plated in a 24-well culture dish at 1.5×10^5 cells/ml, 0.5 ml/well. Four days later, the medium was exchanged to a new one and ^14C-labeled cholesterol (18.5 kBq/well) was added, which was cultured for 24 h (bile acid in the cells was labeled thereby). After the culture, the medium was exchanged to a new one and compound A (final concentration 1, 10 μM) was added. After 24 hours of culture, the medium was recovered and the amount of bile acid excreted into the medium was measured to examine the influence of compound A on bile acid excretion. The amount of excreted bile acid was corrected based on the protein amount of the cell.

LXR = assay: Luciferase reporter gene transcription via LXR (test for comparison); format: cell-based; conditions: up to the concentration of 10 μM
Description: (§7) A plasmid for compulsory expression of FXR, a luciferase reporter plasmid and a β-galactosidase expression plasmid for correction of gene transfer were introduced into cultured mammalian cells (293 or CV-1) by conventional methods. The cells after gene transfer were treated with CDCA and compound A. Cell lysates were prepared from the cells that underwent treatment with various concentrations of compound A (0.1-10 μM), and a luciferase activity (corrected based on β-galactosidase activity) in the cell lysate was expressed as an FXR dependent transcriptional activity. In the absence of a drug, the luciferase activity value upon activation with CDCA was taken as 100% and the value in the absence of a ligand was taken as 0%. For a test for comparison, a similar experiment was conducted using an LXR expression plasmid instead of the FXR expression plasmid.

[5] = Concentration in blood after single oral administration to hamster; format: in vivo; conditions: male, GS, single oral 100 mg/kg, serum
Description: The compound A was forcibly given to hamster by single oral administration and measured for shifts in the concentration in blood. The test conditions were as follows. animal: male GS hamster (purchased from Japan SLC), 9 weeks old administration liquid: 20 mg/ml 0.5% methylcellulose suspension diet: not fasted dose: 100 mg/5 ml/kg (p.o.) administration: forcible single oral administration using oral sound blood sampling time: 5, 15, 30, 60, 180, 360 min after administration serum preparation: blood was drawn from the orbital vein and centrifuged using a Separapid tube (coagulation promoting spitz tube containing serum separating agent) to give serum.
An internal standard substance (CV-5386, 0.1 μg) was added to serum (0.1 ml) and admixed. Methanol (0.3 ml) was added and the mixture was stirred. The mixture was centrifuged at 10,000 rpm (FORCE-7 Denver Instrument Company) for 2 min and the resulting supernatant was subjected to centrifugal filtration using Centricut. The obtained filtrate was analyzed by LC-ESI-MS/MS.

[6] = test system: CYP7A protein in HepG2 cells; assay: CYP7A protein in HepG2 cells by Western blot; format: cell-based, human; conditions: CDCA 20 μM, compound A 0.03-10 μM, 16 h
Description: as §4, §5, §6
3) treatment with CDCA (20 μM), treatment with compound A (0.03, 0.1, 0.3, 1, 3, 10 μM)
After the treatment, the cells were recovered and lysed in a lysis buffer (125 mM Tris HCl (pH 8.0), 2 mM CaCl2, 2% Triton X-100) to prepare a cell lysate. The cell lysate was fractionated by SDS-PAGE, and the protein was transferred onto a PVDF membrane. The CYP7A protein was detected by Western blot analysis using an anti CYP7A antibody and an HRP (horse-radish peroxidase) conjugated 2nd antibody.

[7] = test system: I-BABP gene expression in Caco-2 cells; assay: I-BABP mRNA in Caco-2 cells by Northern blot; format: cell-based, human; conditions: 100 μM CDCA, compound A at 10 μM
Description: The human colon carcinoma derived cell line, Caco-2, is a cell line differentiated like the small intestine and expresses the I-BABP gene. The I-BABP gene expression in Caco-2 cells is promoted by CDCA and an expression control system of I-BABP gene by FXR is considered to be also present in Caco-2 cells (Makishima, M. et al. Science 284, 1362-5 (1999)). Thus, an action on the I-BABP gene expression of compound A as an FXR antagonist was tested using Caco-2 cells.
The Caco-2 cells were cultured in the presence of 100 μM CDCA, and the expression of I-BABP gene was induced. Thereto was added compound A and changes in the I-BABP gene expression level were examined by measuring the amount of I-BABP mRNA by Northern blot analysis.

FXR = biological target: T2, FXR (Homo sapiens, UniProt Q96RI1); assay: CDCA-induced luciferase reporter gene transcription via FXR; format: cell-based; conditions: 293 or CV-1 cells treated with CDCA; compound A 0.1-10 μM
T2 construct: expressed in transfected cells; host or cells: 293 or CV-1
T2 sequence (Q96RI1 1-486): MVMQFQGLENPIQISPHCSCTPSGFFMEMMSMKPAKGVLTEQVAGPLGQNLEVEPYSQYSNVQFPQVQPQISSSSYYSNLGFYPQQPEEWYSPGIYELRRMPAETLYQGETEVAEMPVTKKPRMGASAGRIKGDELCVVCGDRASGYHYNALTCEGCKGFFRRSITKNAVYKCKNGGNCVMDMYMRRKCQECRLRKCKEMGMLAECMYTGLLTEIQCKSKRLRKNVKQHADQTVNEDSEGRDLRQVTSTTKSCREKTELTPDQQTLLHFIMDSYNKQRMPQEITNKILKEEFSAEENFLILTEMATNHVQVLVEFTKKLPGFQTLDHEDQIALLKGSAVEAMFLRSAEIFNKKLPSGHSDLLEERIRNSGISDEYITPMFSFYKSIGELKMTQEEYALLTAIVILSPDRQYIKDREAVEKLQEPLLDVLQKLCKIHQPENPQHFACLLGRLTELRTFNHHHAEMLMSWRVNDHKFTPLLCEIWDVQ
Description: as §7

I-BABP gene = assay: Northern blot of I-BABP gene expression in hamster ileum; format: in vivo; conditions: 14 days
Description: as §1, §2

concentration at which the binding between FXR-LBD and SRC-1 was inhibited (attenuation of FRET fluorescent intensity) [1]: not less than 1 μM
amount of CYP7A mRNA (no CDCA = 100, 20 μM CDCA = 0) [2]: 58
effect on FRET fluorescent intensity with LXR-LBD [3]: did not affect the fluorescent intensity
Cmax [5]: 2010 ng/mL
Tmax [5]: 6 h
CYP7A protein (Western blot) [6]: Accumulation of CYP7A protein
concentration at which FXR dependent transcription was repressed (FXR): not less than 1 μM
SMILES: CC(C)(C)c1cc(C(C)(C)C)c(O)c(NC(=O)c2ccccc2)c1O [compound A, N-(3,5-di-tert-butyl-2,6-dihydroxyphenyl)benzamide]
increase in mRNA level of the CYP7A gene in the liver relative to the drug non-administration group (CYP7A gene; 30 mg/kg/day p.o.): 53%
increase in mRNA level of the CYP7A gene in the liver relative to the drug non-administration group (CYP7A gene; 100 mg/kg/day p.o.): 27%
percent decrease in serum total cholesterol relative to the drug non-administration group ([4]; 30 mg/kg/day p.o.): 28%
percent decrease in serum total cholesterol relative to the drug non-administration group ([4]; 100 mg/kg/day p.o.): 32%
excretion of bile acid into the medium (HepG2 cells): promoted the excretion of bile acid
effect on transcription activity dependent on LXR (LXR): did not influence the transcription activity
mRNA level of I-BABP (Northern blot) [7]: marked decrease
decrease in mRNA level of the I-BABP gene in the ileum relative to the drug non-administration group (I-BABP gene; 30 mg/kg/day p.o.): 11%
decrease in mRNA level of the I-BABP gene in the ileum relative to the drug non-administration group (I-BABP gene; 100 mg/kg/day p.o.): 16%

Source: patent US20020119958A1, “Therapeutic agent for hyperlipidemia” (priority 2001, published 2002)
